One assay concerns the target T1, TrCel7A core (Trichoderma reesei, UniProt P62694).
T1 construct: gene cbh1; GH7 catalytic domain only, first 436 residues after the 17-residue signal peptide; linker and C-terminal family 1 CBM removed; recombinant from Aspergillus oryzae, purified
T1 sequence (P62694 18-453): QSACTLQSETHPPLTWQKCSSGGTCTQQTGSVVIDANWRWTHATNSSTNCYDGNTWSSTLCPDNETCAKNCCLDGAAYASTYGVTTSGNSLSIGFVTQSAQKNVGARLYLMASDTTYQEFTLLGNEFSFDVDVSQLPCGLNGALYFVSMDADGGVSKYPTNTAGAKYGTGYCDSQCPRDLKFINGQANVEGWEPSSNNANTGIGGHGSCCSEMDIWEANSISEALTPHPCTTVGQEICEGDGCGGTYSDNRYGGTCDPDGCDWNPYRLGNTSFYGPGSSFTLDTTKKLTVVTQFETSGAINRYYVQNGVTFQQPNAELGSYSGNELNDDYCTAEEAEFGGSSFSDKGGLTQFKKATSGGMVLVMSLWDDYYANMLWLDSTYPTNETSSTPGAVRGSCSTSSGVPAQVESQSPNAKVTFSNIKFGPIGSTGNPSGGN
Description: isothermal titration calorimetry. The following applies: 30°C, binding constant on a molar concentration scale (unit not given). The source says: isothermal titration calorimetry on TrCel7A core
(In general: ITC needs no label: the signal is the heat of the interaction.)

The target of the next assay is T2, TrCel7A (Trichoderma reesei, UniProt P62694).
T2 construct: gene cbh1; full-length secreted enzyme (GH7 catalytic domain, glycosylated linker, family 1 CBM), 17-residue signal peptide removed, 52 kDa; recombinant from Aspergillus oryzae, purified
T2 sequence (P62694 18-513): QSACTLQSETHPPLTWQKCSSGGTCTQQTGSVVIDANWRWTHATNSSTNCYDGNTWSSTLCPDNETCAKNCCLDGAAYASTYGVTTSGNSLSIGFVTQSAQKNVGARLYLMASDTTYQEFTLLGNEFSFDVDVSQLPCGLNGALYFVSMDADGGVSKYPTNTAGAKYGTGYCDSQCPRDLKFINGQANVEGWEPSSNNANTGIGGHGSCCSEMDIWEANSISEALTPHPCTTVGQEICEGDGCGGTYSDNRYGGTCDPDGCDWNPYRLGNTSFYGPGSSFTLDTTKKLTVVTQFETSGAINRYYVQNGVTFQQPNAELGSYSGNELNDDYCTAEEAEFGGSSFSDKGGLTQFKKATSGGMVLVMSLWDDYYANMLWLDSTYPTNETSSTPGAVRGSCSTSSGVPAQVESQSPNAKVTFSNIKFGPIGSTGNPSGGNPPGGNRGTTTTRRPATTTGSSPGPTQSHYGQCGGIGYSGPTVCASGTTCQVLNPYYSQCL
Briefly: isothermal titration calorimetry. The following applies: 30°C; binding constant on a molar concentration scale (unit not given). The source says: isothermal titration calorimetry on TrCel7A

With `OC1OC[C@@H](O[C@@H]2OC[C@@H](O[C@@H]3OC[C@@H](O[C@@H]4OC[C@@H](O[C@@H]5OC[C@@H](O[C@@H]6OC[C@@H](O[C@@H]7OC[C@@H](O)[C@H](O)[C@H]7O)[C@H](O)[C@H]6O)[C@H](O)[C@H]5O)[C@H](O)[C@H]4O)[C@H](O)[C@H]3O)[C@H](O)[C@H]2O)[C@H](O)[C@H]1O` (some centres unmarked) [Xyloheptaose], the “TrCel7A core (K)” value at TrCel7A core was 7.43 × 10^3. At TrCel7A, the “TrCel7A (K)” value is recorded as 5.76 × 10^3.
Consider `OC1OC[C@@H](O[C@@H]2OC[C@@H](O[C@@H]3OC[C@@H](O[C@@H]4OC[C@@H](O)[C@H](O)[C@H]4O)[C@H](O)[C@H]3O)[C@H](O)[C@H]2O)[C@H](O)[C@H]1O` (some centres unmarked) [Xylotetraose], for which the “TrCel7A core (K)” value on TrCel7A core was 2.97 × 10^3.
For the molecule `OC1OC[C@@H](O[C@@H]2OC[C@@H](O[C@@H]3OC[C@@H](O)[C@H](O)[C@H]3O)[C@H](O)[C@H]2O)[C@H](O)[C@H]1O` (some centres unmarked) [Xylotriose], the “TrCel7A core (K)” value on TrCel7A core is given as > 1.0 × 10^3.
For the molecule Xylohexaose (xyl)5, the “TrCel7A core (K)” value at TrCel7A core (compound identity contradictory in print (name hexaose, formula (xyl)5)) is on record as 3.44 × 10^3.

The record behind these values is PMC3257202, “Xylan oligosaccharides and cellobiohydrolase I (TrCel7A) interaction and effect on activity” (Biotechnology for Biofuels, 2011).
